Results: patent US6869939B2, “Formulations containing amiodarone and sulfoalkyl ether cyclodextrin” (CyDex, Inc., priority 2002, dated 2005)
Where two headings read alike, the source gives them in different places.

Key:
[1] = room temperature (not heated), pH 4.5
Text: The following table can be used to predict the ratio of components required to achieve the indicated amiodarone concentrations at room temperature (not heated) and pH 4.5.

[2] = pH 4.5
Text: The mixture can optionally further comprise a buffer or other charged species wherein the concentration of the buffer or other charged species is less than about 0.5M.

[3] = SBE7-β-CD 0.5% w/v (0.00231 Molar)
[4] = SBE7-β-CD 1% w/v (0.00462 Molar)
[5] = SBE7-β-CD 3% w/v (0.0139 Molar)
[6] = SBE7-β-CD 5% w/v (0.0231 Molar)
[7] = SBE7-β-CD 30% w/v (0.139 Molar)
[8] = SBE7-β-CD 50% w/v (0.231 Molar)
[9] = SBE7-β-CD 80% w/v (0.370 Molar), by extrapolation of phase solubility data

Molecule	Amiodarone (Ami) [1, 3] [mg/mL]	Amiodarone (Ami) Molar [1, 3] [Molar]	Amiodarone (Ami) [1, 4] [mg/mL]	Amiodarone (Ami) Molar [1, 4] [Molar]	Amiodarone (Ami) [1, 5] [mg/mL]	Amiodarone (Ami) Molar [1, 5] [Molar]	Amiodarone (Ami) [1, 6] [mg/mL]	Amiodarone (Ami) Molar [1, 6] [Molar]	Amiodarone (Ami) [1, 7] [mg/mL]	Amiodarone (Ami) Molar [1, 7] [Molar]	Amiodarone (Ami) [1, 8] [mg/mL]	Amiodarone (Ami) Molar [1, 8] [Molar]	Amiodarone (Ami) [1, 9] [mg/mL]	Amiodarone (Ami) Molar [1, 9] [Molar]	times SBE7-β-CD is more effective at solubilizing amiodarone than the named cyclodextrin [2] [times]
CCCCc1oc2ccccc2c1C(=O)c1cc(I)c(OCCN(CC)CC)c(I)c1.Cl [Amiodarone HCl, (2-butyl-3-benzofuranyl)[4-[2-(diethylamino)ethoxy]-3,5-diiodophenyl]methanone hydrochloride]	0.482	0.000708	3.0	0.0045	20.6	0.03019	28.8	0.0423	53.8	0.079	72.2	0.106	100.8	0.148	
dimethyl-beta cyclodextrin [Methyl (DS˜14)]															1.7
